In series [1] the test system is Pseudomonas aeruginosa (strain PA HP3). The experiment in a line: Checkerboard assay with ibuprofen. Format: cell-based. To be noted: for MIC: Pseudomonas aeruginosa, read-out: MIC (with ibuprofen); for MIC (with ibuprofen): with 50 μg/mL of ibuprofen.
Series [2] relates to PA HP3. The experiment in a line: 24 hour end point colony forming units (CFU) count study. The series is classed as cell-based, Pseudomonas aeruginosa. To be noted: P<0.0001. The procedure: A 24 hour end point colony forming units (CFU) count study was performed. […] Increasing concentrations of aztreonam and ceftazidime were loaded horizontally into each well of two separate 96-well plates starting with zero at the top of the plate. […] The plates were set on a platform shaker at 100 rpm in a 37° C. warm room for 24 hours. After the 24-hour incubation, each well was diluted by taking 50 μl culture into 450 μl of MH broth. A 50 μl aliquot of each dilution was plated on blood agar. This serial dilution step was repeated seven times for each well to reach countable numbers of colonies on the blood agar plates.

Series [3] concerns Pseudomonas aeruginosa (strain PA HP3). The experiment in a line: Minimum inhibitory concentration (MIC). The series is classed as cell-based. To be noted: alone. The procedure:
(§1) The final concentrations of aztreonam, ceftazidime and vancomycin were 0.06, 0.13, 0.25, 0.5, 1, 2, 4, 8, 16, 32, 64, and 128 μg/ml. The plates were incubated overnight at 37° C. […] Each triplicate was performed at least twice.

For series [4], the system named is P. aeruginosa strain PA HP3. The experiment in a line: Disc diffusion assay. Format: cell-based, Pseudomonas aeruginosa. To be noted: MH agar with 100 μg/mL ibuprofen vs MH agar control. As for the experimental part: A method for disc diffusion assay includes the following: The activity of five antibiotics (amikacin, aztreonam, ceftazidime, colistin, and tobramycin) was assessed against three strains of Pseudomonas aeruginosa (PAM57-15, PAO1 and PA HP3) using a disc diffusion assay. A single colony of P. aeruginosa was picked and grown to an optical density at 650 nm (OD650) of 0.4. […] Discs containing known quantities of the five previously mentioned antibiotics were placed on the two types of agar plates and incubated for 18 hours. The diameters of the zones of inhibition were measured and compared between the MH and MH+IBU plates.
A general note: In agar diffusion tests the substance spreads into inoculated agar from a disc or well.

Series [5] can be described thus: Brunauer-Emmett-Teller specific surface area. To be noted: for SSA: N = 3. Format: physicochemical. As for the experimental part:
Brunauer-Emmett-Teller: Surface area (SA) was evaluated via a single-point BET method using a Monosorb® surface area analyzer (Quantrachrome Instruments; FL, USA) following 24 hour outgassing with helium at room temperature (RT) before each measurement in triplicate on a known powder mass (m). SSA was calculated using Equation 3: […]
Brunauer-Emmett-Teller (BET) specific surface area (SSA) measurements were taken. Surface area (SA) was evaluated via a single-point BET method using a Monosorb® surface area analyzer (Quantrachrome Instruments; FL, USA) following 24 hour outgassing with helium at room temperature before each measurement in triplicates. Samples masses (m) were at least 50 mg for the jet-milled powders depending on availability and 500 mg for the unprocessed samples. SSA was calculated according to the following formula: […]

Series [6] can be described thus: Particle size distribution by laser light diffraction. The series is classed as physicochemical. As for the experimental part:
The particle size distribution (PSD) D10, D50, and D90 values for each sample were defined as particle diameters at the 10th, 50th, and 90th percentile and the span value was calculated according to Equation 2: […]
PSD analysis by laser light diffraction: PSDs were determined using a Sympatec Helos equipped with a Cuvette module (System-Partikel-Technik GmbH, Clausthal-Zellerfeld, Germany). Data were analyzed using the Sympatec WINDOX software. For each measurement, per a previously optimized method, about 2 mg of powder was dispersed in 0.5 mL of 0.1% (w/v) sodium dodecyl sulfate in water and the sample was sonicated for 5 min. […] After the reference measurement, 50 μL aliquots of the sonicated suspension were added to the cell to achieve optical concentrations of between 10 to 20% and the total of six measurements were performed on each sample. Formulations immediately following air-jet milling (25IBU10.1, 25IBU10.2) and after 6 months (25IBU10.1**, 25IBU10.2**) stored at RT (IBU10.1), or at −80° C. (IBU10.2) were analyzed.
PSDs were determined using a Sympatec Helos equipped with a Cuvette module (System-Partikel-Technik GmbH, Clausthal-Zellerfeld, Germany). Data were analyzed using the Sympatec WINDOX software. For each measurement per a previously optimized method, about 2 mg of powder was dispersed in 0.5 mL of 0.1% (w/v) SLS in water and the sample was sonicated for 5 minutes. […] After the reference measurement, 50 μL aliquots of the sonicated suspension were added to the cell to achieve optical concentrations of between 10 to 20% and the total of six measurements were performed on each sample. Analyzed samples included: unprocessed IBU and IND as well as the milled samples from different sections of the jet mill including the tube after grinding chamber (bfC), the cyclone (C), the collection vessel adapter (D), the collection bag adapter (E), the collection vessel (G) and the collection bag (H) for each run. The span value was calculated according to Equation 2.
To estimate the overall D10, D50, and D90 values for the combined recovered fractions associated with each run, stacked bar charts were graphed and analyzed to determine the yield normalized cumulative PSDs. Each stacked bar corresponded to a particle size bin and its height corresponded to the volume density distributions' weighted averages by the yield for each segment of the jet mill. The D10, D50, and D90 values for the normalized cumulative PSDs were the particle sizes corresponding to the 10, 50, and 90% area of the stacked bar chart respectively.
Tween 20 and sodium lauryl sulfate (SLS) were purchased from Fisher Scientific (Fisher Scientific, Pittsburgh, PA, USA), and dH2O was used for preparing solutions. […] A reference measurement was done in 0.1% (v/v) Span 85 in light mineral oil. After a reference measurement, aliquots of […] of sonicated suspension were added to achieve optical concentrations from 10 to 20% for a total of six measurements.
Furthermore, D10, D50, and D90 values for each sample were defined as particle diameters at the 10th, 50th, and 90th percentile of the PSD. Span was calculated according to Equation 2. Normalized cumulative PSDs were composed of yield-normalized distributions, where they were depicted as stacked bar charts. D10, D50, and D90 values for normalized cumulative PSDs were calculated by approximating particle sizes associated with 10%, 50%, and 90% area of the stacked bar chart.

The nature of series [7]: Angle of repose (USP method). Format: physicochemical. To be noted: N = 3. The procedure: Angle of repose: Angles of repose were measured in triplicate according to the United States Pharmacopoeia (USP) method. Images of the powder mounds were taken using a digital camera and were analyzed using the ImageJ software (Wayne Rasband, Research Services Branch, National Institute of Mental Health, Bethesda, MD, USA). […]

Series [8] is described as follows: Helium pycnometry true density. Format: physicochemical. To be noted: N = 3. As for the experimental part:
Helium pycnometry: True densities were measured using an MVP-D160-E multipycnometer (Quantrachrome Instruments; FL, USA) equipped with the micro cell and adapter. Measurements were conducted in triplicates. Before pressure measurements, the multipycnometer was purged with helium gas according to the manufacturer's recommendations.
True densities were measured using a MVP-D160-E multipycnometer (Quantrachrome Instruments; FL, USA). For density measurements, the micro cell and the micro cell adapter were used, and samples weighed at least 0.1 g for the jet-milled powders depending on availability and at least 0.6 g for the unprocessed powders.

The nature of series [9]: Bulk and tapped density, compressibility index and Hausner ratio. Format: physicochemical. As for the experimental part:
In this modified method, a 10 mL graduated cylinder fitted with a molded adapter substituted the 100 mL graduated cylinder in the tapped density tester. The compressibility index (CI) and Hausner ratio (HR) calculations were performed according to the following formulas: The tapped density (rT) calculations were performed using a tapped density tester (Agilent Technologies, Santa Clara, CA, USA) with a modified method from the USP for a small mass of powder. In this modified method, a 10 mL graduated cylinder fitted with a molded adapter substituted the 100 mL graduated cylinder for the calculations of the bulk density (rB) and the use in the tapped density tester. The compressibility index (CI) and the Hausner ratio (HR) calculations were performed according to the following formulas: […]

Series [10] can be described thus: Karl-Fischer moisture analysis. The series is classed as physicochemical. To be noted: N = 3. The procedure: Karl-Fischer moisture analysis was performed. The moisture content of the unprocessed and jet-milled powders were measured in triplicates using a Photovolt Aqua-test™ 2010a Moisture Analyser (a.k.a. The CSC Aquapal III, CSC Scientific Inc., Fairfax, VA, USA). Powder moisture contents were calculated by subtracting the moisture content in 1 mL of anhydrous methanol (Fisher Scientific, Pittsburgh, PA, USA) from the moisture content reading from 5 mg powder dissolved in 1 mL of anhydrous methanol.

Series [11] concerns methicillin-resistant Staphylococcus aureus (strain MRSA 0646). As to the kind of experiment: Checkerboard assay with ibuprofen.
Procedure: A method for checkerboard assay includes the following: The bacteria were diluted in the standard MH broth to a concentration of 5×10^5 in 100 μL, which was added to each well of a 96-well plate. Aztreonam, ceftazidime and vancomycin solutions were prepared from 10 mg/mL stocks in MH broth. […] The plates were incubated and read as noted for the MIC assay. Again, each triplicate was performed at least twice.
Interaction are defined as synergistic if the FIC index is <1, additive if the FIC index is =1 and antagonistic if the FIC index is >1.
For series [12] the test system is unchanged. The experiment in a line: Minimum inhibitory concentration (MIC). The series is classed as cell-based. As for the experimental part:
as §1

The mark [13] stands for this setting: collection bag from jet-milled DFNa, cyclone from jet-milled DF.
The mark [14] stands for this setting: normalized cumulative particle size distribution of jet-milled powder.
[15] abbreviates: collection bag fraction or stock, Table 8.
[16] abbreviates: fraction used for testing (IBU collection bag, IND cyclone) or unprocessed powder.

In brackets after ≈: the same amount, converted by molar mass. Bounds are passed on as bounds.

The text below walks through data of US12303594B2, “Antimicrobial and anti-inflammatory compositions” (The Texas A&M University System, priority 2015, dated 2025).

What is called MIC is the lowest concentration found to suppress growth.

On to `C[C@H]1[C@H](NC(=O)/C(=N\OC(C)(C)C(=O)O)c2csc(N)n2)C(=O)N1S(=O)(=O)O` [Aztreonam, aztreonam], for which the minimum inhibitory concentration (MIC) turned out to be 2 µg/mL in series [1] and 4 µg/mL (≈ 9.19 µM) in series [3]. The “MIC (with ibuprofen)” value in [1] is given as 2 (50) μg/mL. In [2] (1 μg/mL aztreonam with 50 or 100 μg/mL ibuprofen vs aztreonam alone), the CFU counts entry is “decreased significantly”. Also, the “diameters of the zones of inhibition” value in series [4] is given as “significantly increased”.

In series [5], `O=C(O)Cc1ccccc1Nc1c(Cl)cccc1Cl` [DF, diclofenac] showed an SSA of 1.73 ± 0.18 m^2/g. In series [6] (setting [13]), this compound showed a D10 of 1.31 μm, a D90 of 4.73 μm and a Span of 1.31. Besides, in series [6] (setting [14]), the D10 worked out at 1.16 μm, the D90 is listed as 4.48 μm and the Span is recorded as 1.41. In series [6] (unprocessed), this compound yielded a D10 of 2.00 μm, a D90 of 17.34 μm and a Span of 2.20. In addition, the “Angle of Repose” value in [7] is recorded as 34.5 ± 2.3 °. Besides, the “ρ (true density)” value in series [8] is 1.48 ± 0.01 g/mL. In series [9], the CI turned out to be 46.67, the HR is 1.88, the “ρT (tapped density)” value is 0.30 g/mL and the “ρβ (bulk density)” value was 0.16 g/mL. In [10], the Moisture content is given as 0.78 ± 0.18%.

Consider `CN[C@H](CC(C)C)C(=O)N[C@H]1C(=O)N[C@@H](CC(N)=O)C(=O)N[C@H]2C(=O)N[C@H]3C(=O)N[C@H](C(=O)N[C@H](C(=O)O)c4cc(O)cc(O)c4-c4cc3ccc4O)[C@H](O)c3ccc(c(Cl)c3)Oc3cc2cc(c3O[C@@H]2O[C@H](CO)[C@@H](O)[C@H](O)[C@H]2O[C@H]2C[C@](C)(N)[C@H](O)[C@H](C)O2)Oc2ccc(cc2Cl)[C@H]1O` [Vancomycin, vancomycin], for which the MIC in series [11] (Staphylococcus aureus, MRSA, read-out: MIC (with ibuprofen)) stood at 1 µg/mL; in series [12], 2 µg/mL (≈ 1.38 µM). The FIC index in [11] (combination with ibuprofen, <1 synergistic) is listed as under 1. In addition, the “MIC (with ibuprofen)” value in series [11] (with 50 μg/mL of ibuprofen) is given as 1 (50) μg/mL.

Take `CC(C)(O/N=C(\C(=O)N[C@@H]1C(=O)N2C(C(=O)[O-])=C(C[n+]3ccccc3)CS[C@H]12)c1csc(N)n1)C(=O)O` [Ceftazidime, ceftazidime]: in [1], the MIC was 4 µg/mL and the “MIC (with ibuprofen)” value is recorded as 4 (50) μg/mL. In addition, the CFU counts entry in series [2] (2 or 4 μg/mL ceftazidime with 50 or 100 μg/mL ibuprofen vs ceftazidime alone) is “decreased significantly”. For the same compound, 16 µg/mL (≈ 29.3 µM) was the least that counted as inhibitory in [3] (MIC). Also, in series [4], the “diameters of the zones of inhibition” value is recorded as “significantly increased”.

For `O=C(O)Cc1ccccc1Nc1c(Cl)cccc1Cl` [DFNa, diclofenac sodium], the SSA in [5] worked out at 1.37 ± 0.20 m^2/g. In series [6] (setting [13]), the D10 came out at 1.06 μm, the D90 stood at 5.52 μm and the Span is recorded as 1.64. In series [6] (setting [14]), the D10 was determined as 1.29 μm, the D90 amounted to 6.53 μm and the Span came out at 1.61. In series [6] (unprocessed), this compound had a D10 of 2.02 μm, a D90 of 42.69 μm and a Span of 2.08. Also, in series [7], the “Angle of Repose” value is 48.7 ± 5.5 °. For the same compound, the “ρ (true density)” value in series [8] stood at 1.51 ± 0.00 g/mL. For the same compound, in series [9], the CI stood at 45.24, the HR amounted to 1.83, the “ρT (tapped density)” value was found to be 0.69 g/mL and the “ρβ (bulk density)” value worked out at 0.38 g/mL. The compound also had a Moisture content in [10] of 1.88 ± 0.20%.

As to `COc1ccc2c(c1)c(CC(=O)O)c(C)n2C(=O)c1ccc(Cl)cc1` [unprocessed indomethacin, indomethacin], the surface area in series [5] is listed as 0.435±0.039 m^2/g. Moreover, in series [6] (setting [15]), the D50 is on record as 26.3 μm, the D90 was determined as 64.8 μm and the Span was 2.3. In series [6] (setting [16]), the Span is 2.25 and the “median size (d50)” value turned out to be 26.3 μm. Further, in [9], the “Compressibility Index (CI)” value was 44.7, the “Hausner Ratio (HR)” value is 1.81, the bulk density was 0.321 g/mL and the tap density is 0.580 g/mL.
